Measurements published in US20150118222A1, “TREATMENT USING BRUTON'S TYROSINE KINASE INHIBITORS AND IMMUNOTHERAPY” (Pharmacyclics, Inc., priority 2013, published 2015).
Read-outs that look alike come from different tables or passages of the source.

Assays:
A20 = test: IC50 of ibrutinib in A20 mouse lymphoma cells (FIG. 19B); assay type: cell-based; settings: read-out: IC50 of ibrutinib, FIG. 19 Panel B
CT26 cells [1] = test: CT26 colon cancer mouse model (Example 8); assay type: in vivo, BALB/c mice; settings: CT26 colon carcinoma line
4T1-Luc cells = settings: 4T1, model of triple negative breast cancer
CT26 cells [2] = tested on: CT26 cells

IC50 (A20): > 10 µM
Structure (SMILES): C=CC(=O)N1CCC[C@@H](n2nc(-c3ccc(Oc4ccccc4)cc3)c3c(N)ncnc32)C1 [ibrutinib, 1-((R)-3-(4-amino-3-(4-phenoxyphenyl)-1H-pyrazolo[3,4-d]pyrimidin-1-yl)piperidin-1-yl)prop-2-en-1-one]
sensitivity of the CT26 cell line to ibrutinib (CT26 cells [1]): not sensitive
sensitivity of the 4T1 cell line to ibrutinib (4T1-Luc cells): not sensitive
sensitivity of the CT26 cell line to ibrutinib (CT26 cells [2]): not sensitive
